According to patent publication US10604493B2, “Compositions, methods of use, and methods of treatment” (priority 2012, dated 2020):

What was measured:
CTX-M-9 = CTX-M-9 (Escherichia coli, UniProt Q9L5C8); assay: biochemical; conditions: for LipE (defined as log Ki-c log P): from Ki against CTX-M-9 and c log P
Source text: To investigate the effectiveness of the new analogs, we employed CTX-M-9 and a UV-absorbance based biochemical assay to obtain binding affinities. […] The parameter LipE (defined as log Ki-c log P)^24 provides a measure of binding affinity improvement achieved while retaining favorable physiochemical properties.
The compounds were synthesized as previously described or purchased from the company Chembridge, and assayed without further purification. The highest concentrations at which the compounds were tested were up to 1-3 mM (depending on their solubility) in IC50 experiment. The reaction was initiated by adding protein to the reaction buffer last.

[1] = test system: O=C(Cc1cccs1)N[C@@H]1C(=O)N2C(C(=O)O)=C(/C=C/c3ccc([N+](=O)[O-])cc3[N+](=O)[O-])CS[C@H]12; assay: purified protein, by the assay type; conditions: other: substrate, 100 mM Tris-HCl pH 7.0, 0.01% Triton X-100

| Compound | LipE (defined as log Ki-c log P) (CTX-M-9) | Ki (CTX-M-9) | also measured |
| --- | --- | --- | --- |
| O=C(Nc1cccc(-c2nnn[nH]2)c1)c1cccc(F)c1 [Compound 1] | 1.37 |  |  |
| CC(=O)c1cccc(C(=O)Nc2cccc(-c3nnn[nH]3)c2)c1 [Compound 7, 3-Acetyl-N-[3-(1H-tetrazol-5-yl)-phenyl]-benzamide] | 2.51 |  |  |
| N#Cc1cccc(C(=O)Nc2cccc(-c3nnn[nH]3)c2)c1 [Compound 14, 3-Cyano-N-[3-(1H-tetrazol-5-yl)-phenyl]-benzamide] |  | 7.2 µM |  |
| O=C(Nc1cccc(-c2nnn[nH]2)c1)c1cc(C(F)(F)F)cc2nc[nH]c12 [Compound 19, 6-Trifluoromethyl-3H-benzoimidazole-4-carboxylic acid [3-(1H-tetrazol-5-yl)-phenyl]-amide] | 3.86 | 0.089 µM | ligand efficiency (L.E.) (CTX-M-9; from Ki against CTX-M-9): 0.36 |
| O=C(Nc1cccc(-c2nnn[nH]2)c1)c1cc(F)cc2nc[nH]c12 [Compound 23, 6-Fluoro-3H-benzoimidazole-4-carboxylic acid [3-(1H-tetrazol-5-yl)-phenyl]-amide] |  |  | potency (Ki) relative to comparator compound, in words (CTX-M-9; CTX-M-9): only equipotent to des-fluoro comparator 16 |
| CTX-M-9 (Escherichia coli) |  |  | Km [1]: 24 µM |
